The supplement of paper PMC8149375

Assays:
Details in all cases: treatment: drug + dasatinib (fixed dose, not stated); 5 days
[1] = tested on: 769-P; assay: GI50 of drug in presence of dasatinib; higher = less potent
Protocol: (§1)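 Primary HTS combination arm: 8 RCC cell lines treated with 8 doses (up to 10 uM) of each library drug plus a fixed dose of dasatinib (dose not stated) for 5 days; viability read by CellTiter-Glo and normalised to DMSO. GI50 was fitted with XLfit, AUC is the area under the dose-response curve, and minimum viability is the lowest fraction of DMSO viability across doses.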

[2] = tested on: 786-O; assay: as above
Protocol: as §1

[3] = tested on: A498; assay: as above
Protocol: as §1

[4] = tested on: ACHN; assay: as above
Protocol: as §1

[5] = tested on: CAKI-1; assay: as above
Protocol: as §1

[6] = tested on: SN12C; assay: as above
Protocol: as §1

[7] = tested on: TK-10; assay: as above
Protocol: as §1

[8] = tested on: UO-31; assay: as above
Protocol: as §1

[9] = tested on: 769-P; assay: minimum viability across doses, drug + dasatinib, relative to DMSO (fraction); higher = less growth inhibition
Protocol: as §1

[10] = tested on: 786-O; assay: as above
Protocol: as §1

[11] = tested on: A498; assay: as above
Protocol: as §1

[12] = tested on: ACHN; assay: as above
Protocol: as §1

[13] = tested on: CAKI-1; assay: as above
Protocol: as §1

[14] = tested on: SN12C; assay: as above
Protocol: as §1

[15] = tested on: TK-10; assay: as above
Protocol: as §1

[16] = tested on: UO-31; assay: as above
Protocol: as §1

[17] = tested on: 769-P; assay: AUC of dose-response viability curve, drug + dasatinib, normalised to DMSO (arbitrary (AUC of normalised viability)); higher = less growth inhibition
Protocol: as §1

[18] = tested on: 786-O; assay: as above
Protocol: as §1

[19] = tested on: A498; assay: as above
Protocol: as §1

[20] = tested on: ACHN; assay: as above
Protocol: as §1

[21] = tested on: CAKI-1; assay: as above
Protocol: as §1

[22] = tested on: SN12C; assay: as above
Protocol: as §1

[23] = tested on: TK-10; assay: as above
Protocol: as §1

[24] = tested on: UO-31; assay: as above
Protocol: as §1

| Structure (SMILES) | GI50 of drug [1] | GI50 of drug [2] | GI50 of drug [3] | GI50 of drug [4] | GI50 of drug [5] | GI50 of drug [6] | GI50 of drug [7] | GI50 of drug [8] | minimum viability across doses [9] | minimum viability across doses [10] | minimum viability across doses [11] | minimum viability across doses [12] | minimum viability across doses [13] | minimum viability across doses [14] | minimum viability across doses [15] | minimum viability across doses [16] | AUC of dose-response viability curve [17] | AUC of dose-response viability curve [18] | AUC of dose-response viability curve [19] | AUC of dose-response viability curve [20] | AUC of dose-response viability curve [21] | AUC of dose-response viability curve [22] | AUC of dose-response viability curve [23] | AUC of dose-response viability curve [24] |
| --- | --- | --- | --- | --- | --- | --- | --- | --- | --- | --- | --- | --- | --- | --- | --- | --- | --- | --- | --- | --- | --- | --- | --- | --- |
| Cc1cc(Nc2cc(CN3CCOCC3)c3nc(C)c(Cc4ccc(Cl)cc4F)n3n2)[nH]n1 + Cc1nc(Nc2ncc(C(=O)Nc3c(C)cccc3Cl)s2)cc(N2CCN(CCO)CC2)n1 [dasatinib] | 1620 nM | 262 nM | 4.2 µM | 436 nM | 410 nM | 1340 nM | 1.95 µM | 2.61 µM | 0.0393 | 0.00749 | 0.194 | 0.0702 | 0.00448 | 0.105 | 0.0211 | 0.0199 | 2.24 | 1.65 | 3.43 | 1.75 | 1.73 | 2.1 | 2.43 | 3.83 |
| COc1cc2nccc(Oc3ccc(NC(=O)Nc4cc(C)on4)c(Cl)c3)c2cc1OC [Tivozanib (AV-951)] + Cc1nc(Nc2ncc(C(=O)Nc3c(C)cccc3Cl)s2)cc(N2CCN(CCO)CC2)n1 [dasatinib] | 1570 nM | > 10000 nM | 9.89 µM | 1630 nM | 743 nM | 1950 nM | 9.67 µM | 4.15 µM | 0.146 | 0.569 | 0.457 | 0.0982 | 0.0242 | 0.134 | 0.493 | 0.0455 | 2.1 | 2.68 | 3.13 | 1.95 | 1.75 | 2.12 | 2.55 | 3.32 |
| CCCS(=O)(=O)Nc1ccc(F)c(C(=O)c2c[nH]c3ncc(Cl)cc23)c1F [PLX-4720] + Cc1nc(Nc2ncc(C(=O)Nc3c(C)cccc3Cl)s2)cc(N2CCN(CCO)CC2)n1 [dasatinib] | > 10000 nM | 2740 nM | > 10 µM | 1070 nM | 1700 nM | > 10000 nM | 5.47 µM | > 10 µM | 0.641 | 0.212 | 0.765 | 0.127 | 0.0731 | 0.679 | 0.361 | 0.806 | 2.48 | 2.13 | 3 | 1.93 | 2.08 | 2.47 | 2.44 | 3.22 |
| CCc1cccc(CC)c1NC(=O)N1Cc2[nH]nc(NC(=O)c3ccc(N4CCN(C)CC4)cc3)c2C1 + Cc1nc(Nc2ncc(C(=O)Nc3c(C)cccc3Cl)s2)cc(N2CCN(CCO)CC2)n1 [dasatinib] | > 10000 nM | 469 nM | 2.72 µM | 566 nM | 818 nM | 641 nM | 4.61 µM | 7.53 µM | 0.565 | 0.0687 | 0.406 | 0.129 | 0.0817 | 0.117 | 0.319 | 0.31 | 2.4 | 1.79 | 2.74 | 1.88 | 1.89 | 1.9 | 2.43 | 3.44 |
